≈ marks a conversion by molar mass, not a printed value.
Assays:
E. faecalis VSE 1 = assay: MIC, broth microdilution, vancomycin-sensitive E. faecalis (VSE 1); assay type: cell-based, Enterococcus faecalis; conditions: for MIC: Enterococcus faecalis VSE 1 (vancomycin-sensitive), read-out: MIC; for MIC-fold improvement vs. vancomycin: VSE 1, ratio of MIC of vancomycin and MIC of analogue
Method in brief: (§1)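 Inhibitory concentrations were read by the CLSI broth microdilution procedure, with water and sterile broth as controls. One experiment added vancomycin (10 μM final) together with each analogue or reference antibiotic.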

E. faecalis VRE 6 = assay: MIC, broth microdilution, vancomycin-resistant E. faecalis VRE 6 (VanA); assay type: cell-based, Enterococcus faecalis; conditions: for MIC: Enterococcus faecalis VRE 6 (vancomycin-resistant), read-out: MIC; for MIC-fold improvement vs. vancomycin: VRE 6, ratio of MIC of vancomycin and MIC of analogue
Method in brief: as §1

E. faecalis VRE 53 = assay: MIC, broth microdilution, vancomycin-resistant E. faecalis VRE 53 (VanA); assay type: cell-based, Enterococcus faecalis; conditions: for MIC: Enterococcus faecalis VRE 53 (vancomycin-resistant), read-out: MIC; for MIC-fold improvement vs. vancomycin: VRE 53, ratio of MIC of vancomycin and MIC of analogue
Method in brief: as §1

E. faecalis VRE 29 = assay: MIC, broth microdilution, vancomycin-resistant E. faecalis VRE 29 (VanA); assay type: cell-based, Enterococcus faecalis; conditions: for MIC: Enterococcus faecalis VRE 29 (vancomycin-resistant), read-out: MIC; for MIC-fold improvement vs. vancomycin: VRE 29, ratio of MIC of vancomycin and MIC of analogue
Method in brief: as §1

E. faecalis VRE 37 = assay: MIC, broth microdilution, vancomycin-resistant E. faecalis VRE 37 (VanA); assay type: cell-based, Enterococcus faecalis; conditions: for MIC: Enterococcus faecalis VRE 37 (vancomycin-resistant), read-out: MIC; for MIC-fold improvement vs. vancomycin: VRE 37, ratio of MIC of vancomycin and MIC of analogue
Method in brief: as §1

[1] = tested on: Murine leukemia (L1210) cells; assay: Cytostatic activity, L1210 cell proliferation; assay type: cell-based; conditions: mean ± SD of three experiments; highest concentration tested 250 µM; 2 days; read-out: Toxicity (IC50) L1210
Method in brief: (§2)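 Coulter counter cell counts after 37°C culture with compound; IC50 = concentration giving 50% growth inhibition vs negative control. Incubation: L1210 2 d, CEM 3 d, HeLa 4 d. Suspension density before mixing with an equal volume of dilution: 300,000–500,000 cells/mL.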

[2] = tested on: human T-lymphocyte (CEM) cells; assay: Cytostatic activity, CEM cell proliferation; assay type: cell-based; conditions: mean ± SD of three experiments; highest concentration tested 250 µM; 3 days; read-out: Toxicity (IC50) CEM
Method in brief: as §2

[3] = tested on: human cervix carcinoma (HeLa) cells; assay: Cytostatic activity, HeLa cell proliferation; assay type: cell-based; conditions: mean ± SD of three experiments; highest concentration tested 250 µM; 4 days; read-out: Toxicity (IC50) HeLa
Method in brief: as §2

[4] = tested on: L1210, CEM and HeLa cell lines; assay: Cytostatic activity, average or summary over L1210, CEM and HeLa; assay type: cell-based; conditions: average of L1210, CEM and HeLa; read-out: Toxicity (IC50) Average
Method in brief: as §2

[5] = tested on: S. aureus VSSA (ATCC 6538); assay: MIC, broth microdilution, vancomycin-sensitive S. aureus (VSSA/MSSA, ATCC 6538); assay type: cell-based, Staphylococcus aureus; conditions: for MIC: Staphylococcus aureus VSSA, read-out: MIC; for MIC-fold improvement vs. vancomycin: VSSA, ratio of MIC of vancomycin and MIC of analogue
Method in brief: as §1

S. aureus VISA/HIP5827 = assay: MIC, broth microdilution, vancomycin-intermediate S. aureus VISA HIP5827; assay type: cell-based, Staphylococcus aureus; conditions: for MIC: Staphylococcus aureus VISA/HIP5827, read-out: MIC; for MIC-fold improvement vs. vancomycin: VISA/HIP5827, ratio of MIC of vancomycin and MIC of analogue
Method in brief: as §1

S. aureus VRSA = assay: MIC, broth microdilution, vancomycin-resistant S. aureus (VRSA); assay type: cell-based, Staphylococcus aureus; conditions: for MIC: Staphylococcus aureus VRSA, read-out: MIC; for MIC-fold improvement vs. vancomycin: VRSA, ratio of MIC of vancomycin and MIC of analogue
Method in brief: as §1

MRSA KS2 = assay: MIC, broth microdilution, MRSA KS2; assay type: cell-based, Staphylococcus aureus; conditions: for MIC-fold improvement vs. vancomycin: MRSA KS2, ratio of MIC of vancomycin and MIC of analogue; for MIC: Staphylococcus aureus MRSA KS2, read-out: MIC
Method in brief: as §1

MRSA KS6 = assay: MIC, broth microdilution, MRSA KS6; assay type: cell-based, Staphylococcus aureus; conditions: for MIC-fold improvement vs. vancomycin: MRSA KS6, ratio of MIC of vancomycin and MIC of analogue; for MIC: Staphylococcus aureus MRSA KS6, read-out: MIC
Method in brief: as §1

MRSA KS89 = assay: MIC, broth microdilution, MRSA KS89; assay type: cell-based, Staphylococcus aureus; conditions: for MIC-fold improvement vs. vancomycin: MRSA KS8, ratio of MIC of vancomycin and MIC of analogue; for MIC: Staphylococcus aureus MRSA KS8, read-out: MIC
Method in brief: as §1

MRSA KS1 = assay: MIC, broth microdilution, MRSA KS1; assay type: cell-based, Staphylococcus aureus; conditions: for MIC-fold improvement vs. vancomycin: MRSA KS1, ratio of MIC of vancomycin and MIC of analogue; for MIC: Staphylococcus aureus MRSA KS1, read-out: MIC
Method in brief: as §1

MIC (E. faecalis VSE 1) | MIC-fold improvement vs. vancomycin (E. faecalis VSE 1) | MIC (E. faecalis VRE 6) | MIC-fold improvement vs. vancomycin (E. faecalis VRE 6) | MIC (E. faecalis VRE 53) | MIC-fold improvement vs. vancomycin (E. faecalis VRE 53) | MIC (E. faecalis VRE 29) | MIC-fold improvement vs. vancomycin (E. faecalis VRE 29) | MIC (E. faecalis VRE 37) | MIC-fold improvement vs. vancomycin (E. faecalis VRE 37) | MIC [5] | MIC-fold improvement vs. vancomycin [5] | MIC (S. aureus VISA/HIP5827) | MIC-fold improvement vs. vancomycin (S. aureus VISA/HIP5827) | MIC (S. aureus VRSA) | MIC-fold improvement vs. vancomycin (S. aureus VRSA) | SMILES | IC50 [1] | IC50 [2] | IC50 [3] | IC50 [4] | also measured
0.78 µM (≈ 1.31 µg/mL) | 2 | 3.13 µM (≈ 5.24 µg/mL) | 64 | 6.25 µM (≈ 10.5 µg/mL) | 64 | 6.25 µM (≈ 10.5 µg/mL) | 64 | 6.25 µM (≈ 10.5 µg/mL) | 64 | 0.78 µM (≈ 1.31 µg/mL) | 1 | 0.78 µM (≈ 1.31 µg/mL) | 8 | 1.56 µM (≈ 2.61 µg/mL) | 64 | CNC(CC(C)C)C(=O)NC1C(=O)NC(CC(N)=O)C(=O)NC2C(=O)NC3C(=O)NC(C(=O)NC(C(=O)NCC(=O)Nc4ccc(C#CC5CCCC5)cc4)c4cc(O)cc(O)c4-c4cc3ccc4O)C(O)c3ccc(c(Cl)c3)Oc3cc2cc(c3OC2OC(CO)C(O)C(O)C2OC2CC(C)(N)C(O)C(C)O2)Oc2ccc(cc2Cl)C1O (stereo not drawn) [Vanc-69] | 185 ± 93 µM | 29 µM | 55 ± 37 µM | 90 µM | MIC-fold improvement vs. vancomycin (MRSA KS2): 4; MIC (MRSA KS2): 0.20 µM (≈ 0.335 µg/mL); MIC-fold improvement vs. vancomycin (MRSA KS6): 4; MIC (MRSA KS6): 0.20 µM (≈ 0.335 µg/mL); MIC-fold improvement vs. vancomycin (MRSA KS89): 4; MIC (MRSA KS89): 0.20 µM (≈ 0.335 µg/mL); MIC-fold improvement vs. vancomycin (MRSA KS1): 1; MIC (MRSA KS1): 0.78 µM (≈ 1.31 µg/mL)
0.78 µM (≈ 1.28 µg/mL) | 2 | 6.25 µM (≈ 10.3 µg/mL) | 32 | 6.25 µM (≈ 10.3 µg/mL) | 64 | 6.25 µM (≈ 10.3 µg/mL) | 64 | 6.25 µM (≈ 10.3 µg/mL) | 64 | 0.78 µM (≈ 1.28 µg/mL) | 1 | 0.78 µM (≈ 1.28 µg/mL) | 8 | 1.56 µM (≈ 2.57 µg/mL) | 64 | CNC(CC(C)C)C(=O)NC1C(=O)NC(CC(N)=O)C(=O)NC2C(=O)NC3C(=O)NC(C(=O)NC(C(=O)NCC(=O)Nc4ccc(C#CC5CC5)cc4)c4cc(O)cc(O)c4-c4cc3ccc4O)C(O)c3ccc(c(Cl)c3)Oc3cc2cc(c3OC2OC(CO)C(O)C(O)C2OC2CC(C)(N)C(O)C(C)O2)Oc2ccc(cc2Cl)C1O (stereo not drawn) [Vanc-70] | ≥ 250 µM | 143 ± 113 µM | 73 ± 10 µM | 155 µM | MIC-fold improvement vs. vancomycin (MRSA KS2): 4; MIC (MRSA KS2): 0.20 µM (≈ 0.329 µg/mL); MIC-fold improvement vs. vancomycin (MRSA KS6): 4; MIC (MRSA KS6): 0.20 µM (≈ 0.329 µg/mL); MIC-fold improvement vs. vancomycin (MRSA KS89): 2; MIC (MRSA KS89): 0.39 µM (≈ 0.642 µg/mL); MIC-fold improvement vs. vancomycin (MRSA KS1): 4; MIC (MRSA KS1): 0.20 µM (≈ 0.329 µg/mL)
0.78 µM (≈ 1.31 µg/mL) | 2 | 3.13 µM (≈ 5.24 µg/mL) | 64 | 6.25 µM (≈ 10.5 µg/mL) | 64 | 6.25 µM (≈ 10.5 µg/mL) | 64 | 6.25 µM (≈ 10.5 µg/mL) | 64 | 0.39 µM (≈ 0.653 µg/mL) | 2 | 0.78 µM (≈ 1.31 µg/mL) | 8 | 1.56 µM (≈ 2.61 µg/mL) | 64 | CN[C@H](CC(C)C)C(=O)N[C@H]1C(=O)N[C@@H](CC(N)=O)C(=O)N[C@H]2C(=O)N[C@H]3C(=O)N[C@H](C(=O)N[C@H](C(=O)NCC(=O)Nc4ccc(Oc5ccccc5)cc4)c4cc(O)cc(O)c4-c4cc3ccc4O)[C@H](O)c3ccc(c(Cl)c3)Oc3cc2cc(c3O[C@@H]2O[C@H](CO)[C@@H](O)[C@H](O)[C@H]2O[C@H]2C[C@](C)(N)[C@H](O)[C@H](C)O2)Oc2ccc(cc2Cl)[C@H]1O [Vanc-71] | > 250 µM | 137 ± 41 µM | 91 ± 36 µM | 159 µM | MIC-fold improvement vs. vancomycin (MRSA KS2): 4; MIC (MRSA KS2): 0.20 µM (≈ 0.335 µg/mL); MIC-fold improvement vs. vancomycin (MRSA KS6): 4; MIC (MRSA KS6): 0.20 µM (≈ 0.335 µg/mL); MIC-fold improvement vs. vancomycin (MRSA KS89): 4; MIC (MRSA KS89): 0.20 µM (≈ 0.335 µg/mL); MIC-fold improvement vs. vancomycin (MRSA KS1): 4; MIC (MRSA KS1): 0.20 µM (≈ 0.335 µg/mL)

— publication PMC6001238, “Iterative Chemical Engineering of Vancomycin Leads to Novel Vancomycin Analogs With a High in Vitro Therapeutic Index” (Frontiers in Microbiology, 2018)
